Test results from the supplement of paper PMC13380429.

Key:
Conditions in all cases: 72 h
HepG2 [1] = experiment: cell viability relative to DMSO; higher = less toxic
Calu-3 [2] = experiment: as above
Caco-2 [3] = experiment: as above
U2OS [4] = experiment: as above
Vero E6 [5] = experiment: as above
HepG2 [6] = experiment: relative viability EC50 (midpoint between 100% and the lowest measured viability); higher = less toxic
Calu-3 [7] = experiment: as above
Caco-2 [8] = experiment: as above
U2OS [9] = experiment: as above
Vero E6 [10] = experiment: as above
HepG2 [11] = experiment: drug sensitivity score (DSS) for viability; higher = more toxic; extreme values may be limits of the assay
Calu-3 [12] = experiment: as above
Caco-2 [13] = experiment: as above
U2OS [14] = experiment: as above
Vero E6 [15] = experiment: as above

| Structure (SMILES) | cell viability (HepG2 [1]; 1 nM) [%] | cell viability (HepG2 [1]; 10 nM) [%] | cell viability (HepG2 [1]; 100 nM) [%] | cell viability (HepG2 [1]; 1000 nM) [%] | cell viability (HepG2 [1]; 10000 nM) [%] | cell viability (Calu-3 [2]; 1 nM) [%] | cell viability (Calu-3 [2]; 10 nM) [%] | cell viability (Calu-3 [2]; 100 nM) [%] | cell viability (Calu-3 [2]; 1000 nM) [%] | cell viability (Calu-3 [2]; 10000 nM) [%] | cell viability (Caco-2 [3]; 1 nM) [%] | cell viability (Caco-2 [3]; 10 nM) [%] | cell viability (Caco-2 [3]; 100 nM) [%] | cell viability (Caco-2 [3]; 1000 nM) [%] | cell viability (Caco-2 [3]; 10000 nM) [%] | cell viability (U2OS [4]; 1 nM) [%] | cell viability (U2OS [4]; 10 nM) [%] | cell viability (U2OS [4]; 100 nM) [%] | cell viability (U2OS [4]; 1000 nM) [%] | cell viability (U2OS [4]; 10000 nM) [%] | cell viability (Vero E6 [5]; 1 nM) [%] | cell viability (Vero E6 [5]; 10 nM) [%] | cell viability (Vero E6 [5]; 100 nM) [%] | cell viability (Vero E6 [5]; 1000 nM) [%] | cell viability (Vero E6 [5]; 10000 nM) [%] | relative viability EC50 (HepG2 [6]) [µM] | relative viability EC50 (Calu-3 [7]) [µM] | relative viability EC50 (Caco-2 [8]) [µM] | relative viability EC50 (U2OS [9]) [µM] | relative viability EC50 (Vero E6 [10]) [µM] | drug sensitivity score (HepG2 [11]) | drug sensitivity score (Calu-3 [12]) | drug sensitivity score (Caco-2 [13]) | drug sensitivity score (U2OS [14]) | drug sensitivity score (Vero E6 [15]) |
| --- | --- | --- | --- | --- | --- | --- | --- | --- | --- | --- | --- | --- | --- | --- | --- | --- | --- | --- | --- | --- | --- | --- | --- | --- | --- | --- | --- | --- | --- | --- | --- | --- | --- | --- | --- |
| Ic1cc(-c2ccccc2)ncn1 [4-iodo-6-phenylpyrimidine] | 100 | 107 | 96.8 | 105 | 98.8 | 100 | 105 | 105 | 87.2 | 104 | 93.8 | 101 | 104 | 97.5 | 98 | 102 | 97.2 | 102 | 99.1 | 102 | 105 | 102 | 97.7 | 105 | 95.5 | > 10 | > 10 | > 10 | > 10 | > 10 | 0 | 0 | 0 | 0 | 0 |
| O=S(=O)(O)c1ccc(O)cc1 [4-phenolsulfonic-acid] | 104 | 92.3 | 116 | 105 | 97.8 | 102 | 103 | 104 | 95.1 | 97.1 | 102 | 101 | 98.4 | 103 | 98.4 | 100 | 104 | 97 | 97.6 | 101 | 100 | 95.7 | 92.6 | 100 | 94.5 | > 10 | > 10 | > 10 | > 10 | > 10 | 0 | 0 | 0 | 0 | 0 |
| CC(C)c1cccc2c1OC(C(C)C)C(=S)N2CC(=O)O (stereo not given) [AD-5467] | 93.6 | 97.2 | 98.5 | 98 | 96.6 | 104 | 106 | 92 | 91.1 | 107 | 91.3 | 96.9 | 91.2 | 91.9 | 96.4 | 102 | 98.5 | 98.9 | 96.5 | 98 | 95.7 | 102 | 93.5 | 99.3 | 95.1 | > 10 | > 10 | > 10 | > 10 | > 10 | 0 | 0 | 0 | 0 | 0 |
